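Values below derive from 48-hour exposures of cells grown in 96-well plates, with endpoints linearly interpolated between the two concentrations bracketing the appropriate inhibition level. At the GI50, growth is halved. TGI is the concentration that stops growth completely.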
Legend:
Experiment in all cases: NCI anticancer screen, dose series, 48 h
HCT-15 colon = test system: HCT-15 colon
786-0 renal = test system: 786-0 renal
A498 renal = test system: A498 renal
BT-549 breast = test system: BT-549 breast
SK-OV-3 ovarian = test system: SK-OV-3 ovarian
SR leukemia = test system: SR leukemia
UO-31 renal = test system: UO-31 renal
MALME-3M melanoma = test system: MALME-3M melanoma
MCF7 breast = test system: MCF7 breast
SF-295 CNS = test system: SF-295 CNS

Row | SMILES | GI50 (HCT-15 colon) | TGI (HCT-15 colon) | GI50 (786-0 renal) | TGI (786-0 renal) | GI50 (A498 renal) | TGI (A498 renal) | GI50 (BT-549 breast) | TGI (BT-549 breast) | GI50 (SK-OV-3 ovarian) | TGI (SK-OV-3 ovarian) | GI50 (SR leukemia) | TGI (SR leukemia) | GI50 (UO-31 renal) | TGI (UO-31 renal) | GI50 (MALME-3M melanoma) | TGI (MALME-3M melanoma) | GI50 (MCF7 breast) | TGI (MCF7 breast) | GI50 (SF-295 CNS) | TGI (SF-295 CNS)
1 | CC(=O)/C(=C/c1ccccc1)C(=O)CC(C)C | 4.69 µM | 22.3 µM | 17.5 µM | 32.5 µM | 19.4 µM | 38.8 µM | 14.9 µM | 28.9 µM | 31.8 µM | 99 µM | 2.46 µM | 7.37 µM | 10.5 µM | 22.6 µM | 16.7 µM | 37.3 µM | 4.5 µM | 18.5 µM |  | 
2 | CSC(=NC#N)S/C=C/C(=O)c1ccccc1 | 34.8 µM | > 100 µM | 33.7 µM | > 100 µM | 61 µM | > 100 µM | 29.2 µM | 70.4 µM | > 100 µM | > 100 µM | 12.9 µM | 69.4 µM | 28.3 µM | > 100 µM | 31.2 µM | 74.7 µM | 52.3 µM | > 100 µM | 30.5 µM | > 100 µM
3 | COC1C(O)CC(OC2CC(OC3CC(O[C@@H]4C(=O)c5c(cc6cc(OC7CC(OC8CC(O)C(O)C(C)O8)C(O)C(C)O7)c(C)c(O)c6c5O)CC4[C@H](OC)C(=O)O)OC(C)C3O)OC(C)C2O)OC1C (stereo partly drawn) | 6.3 µM | > 33.3 µM | 2.1 µM | > 33.3 µM | 0.725 µM | 2.6 µM | 1.8 µM | 31.8 µM | 2.24 µM | > 33.3 µM | 0.922 µM | > 33.3 µM | 1.11 µM | > 33.3 µM | 2.37 µM | 28.6 µM | 0.928 µM | > 33.3 µM | 0.97 µM | > 33.3 µM
4 | Cc1c2ccn(O)cc2c(C)c2c1nc1ccccc12 |  | > 100 µM |  | 35.4 µM |  | 55.6 µM |  | 53.8 µM |  | 39.6 µM |  | 15.2 µM |  | 27.5 µM |  | > 41.8 µM |  | > 100 µM |  | 23.4 µM
5 | CCCCC(CCCCCC(CCCC)NCc1ccc2c(c1)OCO2)NCc1ccc2c(c1)OCO2 (stereo not drawn) | 0.326 µM | 1.09 µM | 1.25 µM | 2.53 µM | 1.49 µM | 2.83 µM | 1.48 µM | 3.06 µM | 1.77 µM | 3.16 µM | 0.215 µM | 0.495 µM | 0.481 µM | 1.16 µM | 1.09 µM | 2.56 µM | 0.273 µM | 0.744 µM | 1.76 µM | 3.4 µM
6 | Cc1ccc2oc(=O)cc(/C(=C3/C=CC=N3)c3ccc[nH]3)c2c1 | 0.298 µM | 10.1 µM | 0.279 µM | 0.892 µM | 0.269 µM | 0.92 µM | 0.346 µM | 1.58 µM | 0.264 µM | 0.815 µM | 0.34 µM | 1.46 µM | 0.45 µM | 5.11 µM | 0.782 µM | 3.82 µM | 0.348 µM | 4.23 µM | 0.215 µM | 0.667 µM
7 | COc1cccc(/C=C/C(=O)c2ccc(SC)cc2)c1OC | 10.4 µM | 30.3 µM | 14.2 µM | 28.2 µM | 11.3 µM | 23.8 µM | 20.8 µM | 40.5 µM | 23.5 µM | 40.6 µM | 4.43 µM | 79.5 µM | 17 µM | 31.1 µM | 16.7 µM | 34.7 µM | 11 µM | 35.8 µM |  | 
8 | N#Cc1c(NCc2ccccc2)nc(NCc2ccccc2)c(C#N)c1-c1ccc(O)cc1 | 29.6 µM | > 100 µM | 23 µM | > 100 µM | 24.9 µM | 63.5 µM | 32.8 µM | > 100 µM | 34.5 µM | > 100 µM | 7.09 µM | 91.7 µM | 18.6 µM | 68.5 µM | 29.5 µM | 68.5 µM | 39.7 µM | > 100 µM | 27.1 µM | > 100 µM
9 | CC1=C2CC(C)(C)/C=C\C(=O)/C(C)=C\C3=C[C@H](C)C[C@]3(O2)C1=O |  | 2.53 µM |  | 1.25 µM |  | 11.1 µM |  | 1.5 µM |  | 24.6 µM |  | 0.826 µM |  | 2.61 µM |  | 2.34 µM |  | 2.14 µM |  | 22 µM
10 | COc1cc(Oc2c(C)c(Cl)c(OC)c(Cl)c2OC)c2c(c1Cl)COC2=O |  | > 100 µM |  | 68.4 µM |  | > 100 µM |  | > 100 µM |  | > 100 µM |  | 83.5 µM |  | > 100 µM |  | > 100 µM |  | 86.2 µM |  | > 100 µM
11 | COC(=O)c1ccc2c(c1)C(=O)c1c-2n(CCCCl)c(=O)c2cc([N+](=O)[O-])ccc12 | > 100 µM | > 100 µM | 63.5 µM | > 100 µM | > 100 µM | > 100 µM | 44.4 µM | > 100 µM | > 100 µM | > 100 µM | 4.94 µM | > 100 µM | 49.1 µM | > 100 µM | > 100 µM | > 100 µM | 52 µM | > 100 µM | 52 µM | > 100 µM
12 | COc1cc2c3cc1Oc1c(OC)c(OC)cc4c1C(=NCC4)Cc1ccc(cc1)Oc1cc(ccc1O)C[C@H]3N(C)CC2 |  | 25.9 µM |  | 22.8 µM |  | 36.7 µM |  | 24.9 µM |  | > 100 µM |  | 31.2 µM |  |  |  | 18 µM |  | 70 µM |  | 43.3 µM
13 | CC1=CC(C)=NN=C(N)N1S(=O)(=O)c1cc(C)c(Cl)cc1SCc1ccccc1 | 7.86 µM | > 100 µM | 73.4 µM | > 100 µM | > 100 µM | > 100 µM | 17.8 µM | > 100 µM | 77.7 µM | > 100 µM | 16.5 µM | > 100 µM | 5.18 µM | > 100 µM | 49.1 µM | > 100 µM | 13.3 µM | > 100 µM | 34.3 µM | > 100 µM
14 | CC(=O)Nc1cc2cc(N)ccc2oc1=O |  | > 100 µM |  | > 100 µM |  | > 100 µM |  | > 100 µM |  |  |  | > 100 µM |  | > 100 µM |  | > 100 µM |  | > 100 µM |  | > 100 µM
15 | CN(C)CCN1C(=O)c2cccc3cc([N+](=O)[O-])cc(c23)C1=O |  | 4.2 µM |  | 8.1 µM |  | 0.386 µM |  | 7.62 µM |  | 0.806 µM |  | 97 µM |  |  |  | 1.84 µM |  | 0.743 µM |  | 1.38 µM
